Several values for one entry are separate records, joined by “and”; a condition that tells them apart may be missing. Equal entries are not always repeated. Each block holds one molecule with its values, some of them ahead of it.
Legend:
[1] = biological target: T1, Calf skin collagen type I (Bos taurus, UniProt P02453+P02465); experiment: 3DG-induced collagen crosslinking and inhibition by arginine (CNBr digest, SDS-PAGE); type: biochemical; settings: 37° C., 24 hours
T1 construct: Calf skin collagen type I (1.3 mg; Sigma); purchased Sigma; host or cells: calf skin
Description: Collagen type I was treated with 3DG in the-presence or absence of arginine. The samples were subjected to cyanogen bromide (CNBr) digestion, electrophoresed on a 16.5% SDS Tris-tricine gel, and then the gels were processed using silver stain techniques to visualize the proteins. Lane 1 contains molecular weight marker standards. Lanes 2 and 5 contain 10 and 20 μl of the collagen mixture following CNBr digestion. Lanes 3 and 6 contain the collagen mixture treated with 3DG and then digested with CNBr, and loaded at 10 and 20 μl, respectively. Lanes 4 and 7 contain the mixture of collagen incubated with 5 mM 3DG and 10 mM arginine and then digested with CNBr, and loaded at 10 and 20 μl, respectively.
Collagen I was incubated in the presence or absence of 3DG in vitro. Calf skin collagen type I (1.3 mg; Sigma) was incubated in 20 mM Na-phosphate buffer, pH 7.25, either alone, with 5 mM 3DG, or with 5 mM 3DG plus 10 mM arginine, in a total volume of 1 ml at 37° C. for 24 hours and then frozen and lyophilized. The residue was dissolved in 0.5 ml of 70% formic acid and cyanogen bromide was added (20:1, w/w). This solution was incubated at 30° C. for 18 hours. […] The extent of collagen crosslinking was determined by applying equal volumes of sample and analyzing by SDS-PAGE electrophoresis (16.5% Tris-tricine gel), as determined by the effects of 3DG on the migration of collagen.

Amadorase [2] = settings: read-out: concentration inhibiting Amadorase by 50%; purified Amadorase, 37° C., 15 minutes
Description: Experiments were performed to test the effect of copper on the activity of the Amadorase enzyme in vitro. Using methods described elsewhere, increasing amounts of copper in the form of CuSO4, was added to an in vitro assay. Purified Amadorase was added to the reaction, incubated at 37° C. for 15 minutes, and the amount of FL3P measured. The graph depicted in FIG. 20 represents percent Amadorase activity as a function of copper concentration.

desmosines [3] = experiment: Skin desmosine content in diabetic rats; type: in vivo, rat
Description: (§1) For desmosine analysis, the biopsy of tissue is fixated using paraffin. The paraffin is removed from the […] in the microfuge tubes by incubating for 10 minutes with 500 μL of xylene. Five microliters of water is added, the tubes gently vortexed and then microfuged. The xylene is carefully removed, 400 μL of 6N HCl is added to the protein pellet, and the samples hydrolyzed for 24 hours at 100° C. The acid is evaporated in a savant vacuum centrifuge and the hydrolysate redissolved in 400 μL distilled water. The samples are vortexed and microfuged and 20 μL removed from each tube for desmosine analysis by radioimmunoassay. Protein content is determined in 2 μL of the hydrolysate by slightly modifying the ninhydrin method. A stock ninhydrin solution is made by dissolving 10 g of ninhydrin in 375 mL of ethylene glycol and 125 mL of 4N sodium acetate buffer, pH 5.5. For the working solution, 250 μL of 10% stannous chloride suspension is added for every 10 mL of the ninhydrin stock solution. Hydroxyproline is determined in 50 μL of hydrolysate by amino acid analysis.
The production of desmosines, a precursor to elastin, can be regulated by compounds that affect the Amadorase pathway. Skin from normal, diabetic, and animals treated with 1-deoxy-1-morpholinofructose were excised and for desmosine content as described in example 29.

desmosines [4] = experiment: Aorta desmosine levels in diabetic rats; type: in vivo, rat
Description: as §1

3-deoxyglucosone = experiment: Reduction of urinary and plasma 3-deoxyglucosone by polyollysines and meglumine; type: in vivo, rat; settings: for reduction of plasma 3-deoxyglucosone / average reduction of urinary 3-deoxyglucosone: rats, 10 μmols i.p.; for reduction of plasma 3-deoxyglucosone: plasma at end of 3 h; for average reduction of urinary 3-deoxyglucosone: urine 3 h before vs 3 h after, normalized to creatinine
Description: Urine was collected from six rats for three hours. A plasma sample was also obtained. The animals were then given 10 μmols of either sorbitollysine, mannitollysine, or galactitollysine by intraperitoneal injection. Urine was collected for another three hours, and a plasma sample obtained at the end of the three hours. 3-deoxyglucosone was measured in the samples, as described in Example 5, below, and variable volumes were normalized to creatinine. The average reduction of urinary 3-deoxyglucosone was 50% by sorbitollysine, 35% by mannitollysine and 35% by galactitollysine. Plasma 3-deoxyglucosone was reduced 40% by sorbitollysine, 58% by mannitollysine and 50% by galactitollysine.
Three rats were treated as in b), immediately above, except meglumine (100 μmols) was injected intraperitoneally instead of the above-mentioned lysine derivatives. Three hours after the injection the average 3-deoxyglucosone concentrations in the urine were decreased 42%.
3DG was measured by GC-MS after deionization of the sample. 3DG was derivatized with a 10-fold excess of diaminonaphthalene in PBS. Ethyl acetate extraction gave a salt free fraction which was converted to the trimethyl silyl ethers with Tri-Sil (Pierce). Analysis was performed on a Hewlett-Packard 5890 selected ion monitoring GC-MS system. GC was performed on a fused silica capillary column (DB-5,25 mx.25 mm) using the following temperature program: injector port 250° C., initial column temperature 150° C. which was held for 1 minute, then increased to 290° C. at 16° C./minute and held for 15 minutes. Quantitation of 3DG employed selected ion monitoring using an internal standard of U-13C-3DG.

[5] = Urinary FL, 3DG and 3DF in humans after ingestion of glycated protein (2 g FL); type: in vivo, human; settings: seven volunteers, 2 gram dose of fructoselysine as glycated protein food
Description: 260 g of casein, 120 g of glucose and 720 ml of water were mixed to give a homogeneous mixture. This mixture was transferred to a metal plate and heated at 65° C. for 68 hours. The resulting cake was then pulverized to a coarse powder. This powder contained 60% protein as determined by the Kjeldahl procedure.
One gram of the powder prepared as in step a., above, was hydrolyzed by refluxing with 6N HCl for 20 hours. The resulting solution was adjusted to pH 1.8 with NaOH solution and diluted to 100 ml. The fructoselysine content was measured on an amino acid analyzer as furosine, the product obtained from acid hydrolysis of fructoselysine. In this way, it was determined that the cake contained 5.5% (w/w) fructoselysine. […]
FL was measured by HPLC with a Waters 996 diode Array using a Waters C18 Free Amino Acid column at […] and a gradient elution system of acetonitrile-methyl alcohol-water (45:15:40) into acetonitrile-sodium acetate-water (6:2:92) at 1 ml/min. Quantitation employed an internal standard of meglumine. 3DF was measured by HPLC after deionization of the sample. […] Quantitation was performed from standard curves obtained daily with synthetic 3DF.
3DG was measured by GC-MS after deionization of the sample. […] Quantitation of 3DG employed selected ion monitoring using an internal standard of U-13C-3DG.

Amadorase [6] = experiment: In vitro Amadorase-dependent production of 3DG from FL; type: biochemical; settings: FL 2.6 mM
[7] = system: human dermal fibroblasts acquired from a patient with scleroderma; experiment: Collagen 1A1 mRNA by Northern blot in scleroderma fibroblasts; type: cell-based; settings: 5 mM, 72 hours, normalized to GAPDH mRNA
Description: In these experiments 5 mM FL was added to cultured human dermal fibroblasts acquired from a patient with scleroderma. After 72 hours, cells were collected and mRNA isolated. Equal amounts of each mRNA preparation was separated by electrophoresis and the amount of collagen 1A1 mRNA detected by Northern blot using a radioactive probe to the collagen 1A1 mRNA as shown in FIG. 19. A phosphoimager was used to quantify the amount of collagen type 1 mRNA. A radioactive probe to the GAPDH mRNA was used as a control to normalize the level of collagen 1A1 mRNA in each sample. The level of collagen 1A1 RNA was decreased by 40%.

desmosines [8] = experiment: Lung desmosine levels in STZ-diabetic mice; type: in vivo; settings: regardless of whether diabetic
Description: as §1
Lung tissues from mice made diabetic with STZ was excised and analyzed for desmosine levels. The levels of desmosines in diabetic mice were greater than non-diabetic mice.

[9] = individual treated diabetic rats

T1 sequence (P02453 162-1217 limits assumed): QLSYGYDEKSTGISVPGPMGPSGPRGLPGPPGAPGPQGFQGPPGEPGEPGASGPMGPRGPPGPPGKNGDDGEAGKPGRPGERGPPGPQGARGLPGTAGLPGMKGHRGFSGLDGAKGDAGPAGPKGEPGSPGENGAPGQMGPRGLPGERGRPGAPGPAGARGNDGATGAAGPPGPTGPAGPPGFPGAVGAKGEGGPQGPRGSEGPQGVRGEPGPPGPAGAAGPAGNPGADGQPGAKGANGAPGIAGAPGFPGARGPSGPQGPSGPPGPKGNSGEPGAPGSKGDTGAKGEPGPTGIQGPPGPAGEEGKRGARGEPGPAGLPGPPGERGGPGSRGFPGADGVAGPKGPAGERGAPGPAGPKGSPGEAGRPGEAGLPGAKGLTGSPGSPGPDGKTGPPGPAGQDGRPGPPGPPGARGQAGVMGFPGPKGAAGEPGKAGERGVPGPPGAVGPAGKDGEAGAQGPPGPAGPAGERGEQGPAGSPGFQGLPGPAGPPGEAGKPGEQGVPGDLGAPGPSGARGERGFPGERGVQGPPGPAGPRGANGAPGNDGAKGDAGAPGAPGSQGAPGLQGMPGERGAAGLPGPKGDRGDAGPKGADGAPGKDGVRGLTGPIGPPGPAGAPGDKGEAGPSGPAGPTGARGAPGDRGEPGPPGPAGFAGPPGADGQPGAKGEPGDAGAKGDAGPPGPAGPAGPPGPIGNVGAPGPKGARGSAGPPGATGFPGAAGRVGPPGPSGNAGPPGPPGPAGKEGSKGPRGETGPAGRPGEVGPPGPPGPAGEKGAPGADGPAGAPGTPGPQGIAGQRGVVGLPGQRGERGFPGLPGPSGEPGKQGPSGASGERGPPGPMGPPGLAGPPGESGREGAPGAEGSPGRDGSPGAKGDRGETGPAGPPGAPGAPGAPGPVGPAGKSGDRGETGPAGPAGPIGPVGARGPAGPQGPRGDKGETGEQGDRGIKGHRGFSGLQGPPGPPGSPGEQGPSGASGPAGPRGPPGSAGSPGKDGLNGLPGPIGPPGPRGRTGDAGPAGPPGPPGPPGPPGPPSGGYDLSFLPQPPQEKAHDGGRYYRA
T1 sequence (P02465 80-1117 limits assumed): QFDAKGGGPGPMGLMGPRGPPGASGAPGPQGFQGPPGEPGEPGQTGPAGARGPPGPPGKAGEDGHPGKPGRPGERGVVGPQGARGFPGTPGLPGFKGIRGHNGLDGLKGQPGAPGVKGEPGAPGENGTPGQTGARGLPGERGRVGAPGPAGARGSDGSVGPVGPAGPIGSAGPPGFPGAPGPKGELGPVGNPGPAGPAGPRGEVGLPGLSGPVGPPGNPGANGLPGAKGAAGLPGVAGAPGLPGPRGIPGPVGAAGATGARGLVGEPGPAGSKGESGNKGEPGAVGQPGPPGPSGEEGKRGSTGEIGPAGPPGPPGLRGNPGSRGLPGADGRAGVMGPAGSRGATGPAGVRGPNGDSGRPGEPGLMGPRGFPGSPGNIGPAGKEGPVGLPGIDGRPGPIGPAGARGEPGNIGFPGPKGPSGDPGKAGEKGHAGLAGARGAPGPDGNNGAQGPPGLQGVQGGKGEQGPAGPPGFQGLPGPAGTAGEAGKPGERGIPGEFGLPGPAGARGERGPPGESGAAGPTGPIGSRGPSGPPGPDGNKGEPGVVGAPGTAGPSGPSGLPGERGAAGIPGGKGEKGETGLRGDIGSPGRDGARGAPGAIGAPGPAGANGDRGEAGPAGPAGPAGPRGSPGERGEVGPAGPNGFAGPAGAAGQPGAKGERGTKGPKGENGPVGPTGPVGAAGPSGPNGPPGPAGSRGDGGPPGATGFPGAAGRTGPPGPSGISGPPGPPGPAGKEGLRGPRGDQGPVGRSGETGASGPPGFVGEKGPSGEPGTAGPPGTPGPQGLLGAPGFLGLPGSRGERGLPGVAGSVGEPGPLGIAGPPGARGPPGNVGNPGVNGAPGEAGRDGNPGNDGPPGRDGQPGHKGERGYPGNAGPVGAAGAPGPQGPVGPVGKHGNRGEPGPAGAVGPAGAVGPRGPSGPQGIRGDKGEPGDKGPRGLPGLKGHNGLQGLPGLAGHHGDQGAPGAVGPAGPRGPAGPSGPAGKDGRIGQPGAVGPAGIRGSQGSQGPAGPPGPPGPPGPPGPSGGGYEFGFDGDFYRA

Compound: O=CC(=O)C[C@H](O)[C@H](O)CO [3DG, 3-deoxyglucosone, reference compound]
effect on collagen migration (crosslinking) ([1]; collagen type I with 5 mM 3DG): caused the collagen to migrate as if it had a higher molecular weight

Compound: O=S(=O)([O-])[O-].[Cu+2] [Copper sulfate]
IC50 (Amadorase [2]): ~1000 nM

Compound: O=C(CN1CCOCC1)[C@@H](O)[C@H](O)[C@H](O)CO [1-deoxy-1-morpholinofructose]
skin desmosine levels compared to untreated diabetic animals (desmosines [3]; diabetic animals, P=0.00242): lower levels of desmosines
skin desmosine content pmD/mgP (desmosines [3]; [9]): 63.1 pmD/mgP and 67.9 pmD/mgP (2×) and 88.1 pmD/mgP and 64.3 pmD/mgP and 65.8 pmD/mgP and 65.1 pmD/mgP and 66.8 pmD/mgP
aorta desmosine levels compared to untreated diabetic rats (desmosines [4]; diabetic rats, P=0.104): decrease in desmosine levels
aorta desmosine pmD/mgP (desmosines [4]; [9]): 3809 pmD/mgP and 2558 pmD/mgP and 2842 pmD/mgP and 2906 pmD/mgP and 3633 pmD/mgP and 3681 pmD/mgP

Compound: N[C@@H](CCCCNC[C@H](O)[C@@H](O)[C@@H](O)[C@H](O)CO)C(=O)O [galactitollysine]
reduction of plasma 3-deoxyglucosone (3-deoxyglucosone): 50%
average reduction of urinary 3-deoxyglucosone (3-deoxyglucosone): 35%

time of peak 3DF excretion in urine after FL bolus [5]: about 4 hours
3DG (mM) after 24 hours (Amadorase [6]; reaction 1: Amadorase +, ATP +): 1.58 mM
FL3P (mM) after 24 hours (Amadorase [6]; reaction 1: Amadorase +, ATP +): 0.2 mM
3DG (mM) after 24 hours (Amadorase [6]; reaction 2: Amadorase +, ATP −): 0.08 mM
FL3P (mM) after 24 hours (Amadorase [6]; reaction 2: Amadorase +, ATP −): 0.0 mM
3DG (mM) after 24 hours (Amadorase [6]; reaction 3: Amadorase −, ATP +): 0.09 mM
FL3P (mM) after 24 hours (Amadorase [6]; reaction 3: Amadorase −, ATP +): 0.0 mM
3DG (mM) after 24 hours (Amadorase [6]; reaction 4: Amadorase −, ATP −): 0.08 mM
FL3P (mM) after 24 hours (Amadorase [6]; reaction 4: Amadorase −, ATP −): 0.0 mM
Compound: N[C@@H](CCCCNCC(=O)[C@@H](O)[C@H](O)[C@H](O)CO)C(=O)O [fructoselysine]
decrease of level of collagen 1A1 RNA [7]: 40%

Compound: N[C@@H](CCCCNC[C@@H](O)[C@@H](O)[C@H](O)[C@H](O)CO)C(=O)O [mannitollysine]
reduction of plasma 3-deoxyglucosone (3-deoxyglucosone): 58%
average reduction of urinary 3-deoxyglucosone (3-deoxyglucosone): 35%

Compound: CNC[C@H](O)[C@@H](O)[C@H](O)[C@H](O)CO [meglumine, reference compound]
decrease of average 3-deoxyglucosone concentration in urine (3-deoxyglucosone; three rats, 100 μmols i.p., three hours after injection): 42%
lung desmosine levels compared to untreated mice (desmosines [8]): less than mice not so treated

Compound: N=C(N)NCCC[C@H](N)C(=O)O [arginine]
inhibition of 3DG induced collagen crosslinking ([1]; collagen type I with 5 mM 3DG plus 10 mM arginine): fewer high molecular bands

Compound: N[C@@H](CCCCNC[C@H](O)[C@@H](O)[C@H](O)[C@H](O)CO)C(=O)O [sorbitollysine]
reduction of plasma 3-deoxyglucosone (3-deoxyglucosone): 40%
average reduction of urinary 3-deoxyglucosone (3-deoxyglucosone): 50%

Reference: US20070065443A1, “Fructoseamine 3 kinase and the formation of collagen and elastin” (priority 2004, published 2007)
